Measurements taken from paper PMC6072471 (MedChemComm, 2017).

Legend:
rVSIV-ΔG-G pseudotype = experiment: microbe, parasite or virus in culture; type: cell-based, Vesicular stomatitis Indiana virus; conditions: for IC50: Vesicular stomatitis Indiana virus, HEK293, 24 h, read-out: ICVSIV50
[1] = system: rVSIV-ΔG-MarV-GP pseudotype; experiment: organism not typed; type: cell-based, Marburg virus; conditions: for IC50: HEK293, 24 h, read-out: ICMarV50

| Structure (SMILES) | activity against rVSIV-ΔG-G (in words) (rVSIV-ΔG-G pseudotype) | IC50 (rVSIV-ΔG-G pseudotype) [µM] | activity against rVSIV-ΔG-MarV-GP (in words) [1] | IC50 [1] [µM] | toxicity (in words) (HEK293 cells) | specificity of inhibition of MarV-GP-mediated infection (in words) [1] |
| --- | --- | --- | --- | --- | --- | --- |
| CC1(C)[C@H]2CC[C@]1(C)[C@H](O)C2 [(–)-Borneol, reference compound] | not active | > 650 | not active | 203 | nontoxic | – |
| CC1(C)[C@H]2CC[C@]1(C)[C@H](OC(=O)CN1CCCC1)C2 [Compound 1] | – | 239 ± 19 | – | 52 ± 5 | – | non-specific inhibitors |
| CC1(C)[C@H]2CC[C@]1(C)[C@H](OC(=O)CCN1CCCC1)C2 [Compound 2] | – | 29 ± 6 | – | 12 ± 1 | – | non-specific inhibitors |
| CC1(C)[C@H]2CC[C@]1(C)[C@H](OC(=O)CN1CCCCC1)C2 [Compound 3] | – | 102 ± 9 | – | 86 ± 11 | – | – |
| CC1(C)[C@H]2CC[C@]1(C)[C@H](OC(=O)CCN1CCCCC1)C2 [Compound 4] | – | 121 ± 7 | – | 9 ± 1 | – | – |
| CC1CCN(CC(=O)O[C@@H]2C[C@@H]3CC[C@@]2(C)C3(C)C)CC1 [Compound 5] | – | 77 ± 16 | – | 28 ± 2 | – | – |
| CC1CCN(CCC(=O)O[C@@H]2C[C@@H]3CC[C@@]2(C)C3(C)C)CC1 [Compound 6] | – | 79 ± 19 | – | 4 ± 1 | – | highest virus-specific activity |
| CC1(C)[C@H]2CC[C@]1(C)[C@H](OC(=O)CN1CCOCC1)C2 [Compound 7] | – | 267 ± 10 | do not exhibit activity | 263 ± 24 | – | – |
| CC1(C)[C@H]2CC[C@]1(C)[C@H](OC(=O)CCN1CCOCC1)C2 [Compound 8] | – | 257 ± 12 | do not exhibit activity | 78 ± 7 | – | – |
| CN1CCN(CC(=O)O[C@@H]2C[C@@H]3CC[C@@]2(C)C3(C)C)CC1 [Compound 9] | – | 187 ± 24 | – | 47 ± 3 | – | – |
| CN1CCN(CCC(=O)O[C@@H]2C[C@@H]3CC[C@@]2(C)C3(C)C)CC1 [Compound 10] | – | 318 ± 23 | – | 19 ± 1 | – | – |
| CCN1CCN(CC(=O)O[C@@H]2C[C@@H]3CC[C@@]2(C)C3(C)C)CC1 [Compound 11] | – | 447 ± 15 | – | 29 ± 2 | – | – |
| CCN1CCN(CCC(=O)O[C@@H]2C[C@@H]3CC[C@@]2(C)C3(C)C)CC1 [Compound 12] | – | 106 ± 5 | – | 10 ± 2 | – | – |
| CC1(C)[C@H]2CC[C@]1(C)[C@H](OC(=O)CN1CCNCC1)C2 [Compound 13] | – | 69 ± 13 | – | 20 ± 1 | – | – |
| CC1(C)[C@H]2CC[C@]1(C)[C@H](OC(=O)CCN1CCNCC1)C2 [Compound 14] | – | 102 ± 25 | – | 10 ± 4 | – | – |
| CCCCN(CCCC)CC(=O)O[C@@H]1C[C@@H]2CC[C@@]1(C)C2(C)C [Compound 15] | – | 20 ± 1 | – | 11 ± 1 | highest toxicity | – |
| CCCCN(CCCC)CCC(=O)O[C@@H]1C[C@@H]2CC[C@@]1(C)C2(C)C [Compound 16] | – | 48 ± 5 | – | 6 ± 1 | highest toxicity | – |
| COc1ccc(CCN(C)CCCC(C#N)(c2ccc(OC)c(OC)c2)C(C)C)cc1OC (stereo not shown) [Verapamil, reference compound] | – | > 200 | – | 13 ± 1 | – | – |
